A word on the melting point: it is the temperature, or range, at which the solid turns liquid.

The record followed here is a melting point compilation (Tetko et al.).

As to `Cc1sc(=O)n(CCC(=O)O)c1C`, the melting point is 150 to 152 °C.
Under `CCCNC(=O)c1ccccc1N` stands 206 to 208 °C; under `Oc1ccnc2cc(Br)ccc12`, 286 to 288 °C.
Next, `Cc1n[nH]c(N)c1C#N`: 160 to 162 °C; `COc1cc2ccncc2cc1O`: 159 to 161 °C; `N#Cc1ccc(OCC(=O)NN)cc1`: 180 to 182 °C.
Next, `N#Cc1ccccc1CN1CCOC1=O`: 91 to 93 °C; `CS(=O)(=O)c1ccc(-c2nnc(N)o2)cc1`: 297 to 299 °C; `CC(C)(C)C1CCc2sc(C(=O)O)cc2C1` (stereo not given): 169 to 171 °C.
As to `COc1ccc(Br)cc1C(=O)O`, the melting point lay in the range of 112 to 114 °C.
Next, `Cc1ccc(OCc2nc(N)no2)cc1`: 144 to 146 °C; `O=C(CBr)c1ccc(S(=O)(=O)N2CCCCCC2)cc1`: 70 to 72 °C; `CC1C=CC2C(=O)N(C(C)C)C(=O)C2C1C(=O)O` (stereo not given): 149 to 151 °C.
Under `O=[N+]([O-])c1cc(Br)ccc1S` stands 123 to 125 °C.
Under `O=C(NCC(F)(F)F)c1ccc(Br)cc1` stands 119 to 121 °C; under `NS(=O)(=O)Cc1ccc(Cl)nc1`, 142 to 144 °C; under `O=C(O)Cc1ccc(S(=O)(=O)CC(F)F)cc1`, 135 to 137 °C.
Compound `CN(C)S(=O)(=O)c1cc(C(=O)O)ccc1F` came in with a melting point of 199 to 201 °C.
Next, `O=C(O)CCC(NC(=O)c1ccccc1)C(=O)O` (stereo not given): 133 to 135 °C; `O=C(Nc1cc(Cl)ccc1Cl)C1CCCCN1` (stereo not given): 127 to 129 °C.
`CCOC(=O)c1c(C)nn2c(=O)cc(CCl)[nH]c12` came in with a melting point of 218 to 220 °C.
Under `Cc1cc(C(=O)O)ccc1N1CCNC1=O` stands 279 to 281 °C; under `NC(=O)c1cc(S(=O)(=O)NCC(=O)O)c[nH]1`, 279 to 281 °C; under `Cn1nnc2ccc(C(=O)O)cc21`, 271 to 273 °C.
Under `O=S1(=O)CCNCN1` stands 143 to 145 °C.
Under `COc1cccc(CNC(=O)C(C)Cl)c1` (stereo not given) stands 89 to 91 °C; under `COc1cccc(OC)c1CO`, 53 to 55 °C; under `NCC(=O)Nc1cccc2ncccc12`, 128 to 130 °C.
`COc1ccccc1SCC(=O)NN`: the melting point fell in the range of 109 to 111 °C.
Next, `CCCCCS(N)(=O)=O`: 62 to 64 °C; `O=Cc1nccc2ccccc12`: 51 to 53 °C; `CCC(Oc1ccccc1C)C(=O)O` (stereo not given): 49 to 51 °C.
Next, `CCC(N)=S`: 40 to 42 °C.
Next, `O=C(O)C1CCSCC1`: 109 to 111 °C.
The compound `O=C(O)c1sc(Cl)nc1Cl` yielded a melting point of 164 to 166 °C.
Next, `COC(=O)c1cc(C=O)c[nH]1`: 124 to 126 °C.
Compound `CCc1cccc(CC(=O)O)c1` returned a melting point of 58 to 60 °C.
Under `CCCCc1ccc(NS(=O)(=O)c2cccc(C(=O)O)c2)cc1` stands 206 to 208 °C; under `NC(=O)Nc1cccnc1`, 189 to 191 °C; under `CC(Cl)C(=O)Nc1ccc(NC(=O)c2cccs2)cc1` (stereo not given), 227 to 229 °C.
For `Nc1cc(-c2ccccc2)nn1CCO`, the melting point was 142 to 144 °C.
Next, `O=C(O)c1cc(COc2ccc(Cl)cc2Cl)on1`: 151 to 153 °C; `O=C(O)CSc1cnc2ccccc2n1`: 178 to 180 °C.
Under `NS(=O)(=O)Cc1ccc(F)cc1` stands 122 to 124 °C; under `COc1ccc(Cc2cnc(NC(=O)CCl)s2)cc1`, 152 to 154 °C.
Next, `CCOC(=O)Cc1nc2ccccc2[nH]1`: 179 to 181 °C; `O=C(NCCO)c1ccc(O)cc1O`: 163 to 165 °C; `COCC(N)=O`: 86 to 88 °C.
Take `Cn1cnnc1CN`: the melting point lay in the range of 32 to 34 °C.
Next, `C(=C\c1ccncc1)/c1ccccc1`: 128 to 130 °C.
`NC(=O)CN1CC(C(=O)O)CC1=O` (stereo not given) yielded a melting point of 169 to 171 °C.
Under `COc1ccc(S(=O)(=O)N2CCCCCC2)cc1N` stands 118 to 119 °C; under `O=C1CC2(CCCCC2)Oc2cc(O)ccc21`, 169 to 171 °C.
Turning to `CS(=O)(=O)Nc1cc(F)ccc1N`, the melting point was in the range of 121 to 123 °C.
In turn, `Oc1nnc(-c2ccccc2)c(-c2ccccc2)n1` yielded a melting point of 222 to 224 °C.
Turning to `Cc1nc2ccnn2c(C)c1CCC(=O)O`, the melting point lay in the range of 223 to 225 °C.
Under `CN(C)S(=O)(=O)c1ccc2c(c1)NCCC2` stands 130 to 132 °C; under `CN1CC(=O)Nc2cccnc21`, 161 to 163 °C.
`COc1ccccc1-c1cnc(CCl)o1` gave a melting point of 86 to 88 °C.
Under `CSc1cccc(NC2CCN(C)CC2)c1` stands 76 to 78 °C.
Next, `O=C1C=CC(=O)N1c1ccc2ccccc2c1`: 120 to 124 °C; `NCc1ccc(N2CC=CC2)cc1`: 74 to 76 °C; `Nc1cc(C2CCCCC2)no1`: 127 to 129 °C.
Under `CCn1ncc2c(C(=O)O)cc(-c3cccs3)nc21` stands 243 to 245 °C; under `CNc1ccc(C=O)cc1[N+](=O)[O-]`, 118 to 120 °C.
In the case of `O=C(O)/C=C/c1ccc(Br)s1`, the melting point was in the range of 209 to 211 °C.
Compound `CC(Cl)C(=O)Nc1cccc2ccccc12` (stereo not given) had a melting point of 146 to 148 °C.
Under `Nc1ncccc1-c1ccccc1` stands 103 to 105 °C; under `Cn1cc(COc2ccc(O)cc2)cn1`, 186 to 188 °C; under `COc1ccccc1Nc1nc(-c2ccc(C)cc2)cs1`, 143 to 145 °C.
Under `NC(=O)c1ccc2c(N)ncnc2c1` stands 359 to 361 °C; under `FC(F)c1nc2c(Cl)cccc2[nH]1`, 125 to 127 °C.
As to `O=C(CC(F)(F)F)c1ccc(Cl)cc1`, the melting point was 39 to 41 °C.
Next, `O=C(O)c1ccccc1OCc1ccc(F)cc1`: 80 to 84 °C; `Cc1cnc(Cl)cc1O`: 173 to 175 °C; `Cc1ccccc1-c1nnc(S)o1`: 188 to 190 °C.
`C#CCNC(=O)CC#N` registered a melting point of 108 to 110 °C.
Under `Nn1c(S)nnc1-c1cccs1` stands 216 to 220 °C.
Regarding `O=C(O)c1nc(Cl)cnc1Br`, the melting point was 99 to 101 °C.
Under `CC(C)(Br)C(=O)Nc1ccccc1` stands 82 to 84 °C.
Under `O=C(O)Cc1csc(-c2cccc(Br)c2)n1` stands 106 to 110 °C; under `Cc1sc(N)nc1-c1cccc(Cl)c1`, 90 to 94 °C; under `O=C(CCl)N1CCN(C(=O)Nc2ccccc2)CC1`, 168 to 170 °C.
Turning to `Cc1nn(C)c2ncc(C#N)cc12`, the melting point was 176 to 178 °C.
Next, `O=C(CCl)c1ccc2c(c1)CCC2`: 47 to 58 °C; `N#Cc1ccsc1NC(=O)CCCl`: 150 to 152 °C.
`CC(=O)Nc1cccc2c1CCCN2`: the melting point lay within 144 to 146 °C.
Under `CC(=O)c1cccc(NC(=O)C(C)Cl)c1` (stereo not given) stands 111 to 113 °C; under `Cc1cc(C=O)c(C)n1-c1cccc(F)c1`, 78 to 80 °C; under `Cc1ccc(SC2=C(C(=O)O)CCCC2)cc1`, 199 to 201 °C.
Under `COCCN(CCOC)S(=O)(=O)c1ccc(C(=O)O)cc1` stands 147 to 149 °C.
Under `CC(=O)c1cccc(OCc2cn3ccccc3n2)c1` stands 77 to 79 °C; under `Cc1nc(NN)c2cc(-c3ccccc3)sc2n1`, 163 to 165 °C.
With `CCN(CC)c1nc2ccccc2[nH]c1=O`, the melting point is 151 to 153 °C.
In turn, `COc1ccc(Nc2n[nH]c(N)c2C#N)cc1` registered a melting point of 119 to 121 °C.
Turning to `Cc1ccc(-n2cc(C)cn2)c(N)c1`, the melting point lay within 49 to 51 °C.
Next, `O=C(O)CSCc1ccc(Cl)s1`: 66 to 68 °C; `CC(C)(C)n1cc(C#N)cc1NC(=O)OCC(F)(F)F`: 147 to 149 °C.
Under `COC(=O)Cc1nn[nH]n1` stands 154 to 156 °C; under `COc1cc(S(=O)(=O)Cl)c(Cl)cc1C(=O)O`, 159 to 161 °C; under `Nc1cc2c(cc1Cl)OCO2`, 90 to 92 °C.
`N#CCc1cc(Cl)c2c(c1)OCCO2` showed a melting point of 102 to 104 °C.
Next, `CCc1cc(OCC(=O)O)ccc1Cl`: 143 to 145 °C; `COC(=O)COc1ccc(C(C)=O)cc1`: 85 to 87 °C; `Nn1c(S)nnc1-c1ccccc1Br`: 188 to 190 °C.
Regarding `NCc1cccc(NC(=O)c2cccc(F)c2)c1`, the melting point lay in the range of 100 to 102 °C.
Next, `CC(C)Nc1ccc(Br)cn1`: 69 to 71 °C.
Under `Cc1nnc(-c2ccccc2N)o1` stands 145 to 147 °C; under `CNc1ccnc(C(N)=O)c1`, 157 to 159 °C; under `NCCNS(=O)(=O)c1ccccc1`, 74 to 76 °C.
Next, `NS(=O)(=O)c1ccc2c(c1)OCCO2`: 197 to 199 °C; `Oc1ccc(-n2cccn2)cc1`: 107 to 109 °C; `O=C(O)CCCS(=O)(=O)c1ccc(Br)cc1`: 117 to 119 °C.
For `CCC(C)[C@H](NC(=O)N1CCCC1)C(=O)O` (stereo not given in full), the melting point was in the range of 147 to 149 °C.
Next, `Cc1c(Cl)cccc1Nc1nnc(S)s1`: 189 to 191 °C; `Cc1ccc2ncc(C(=O)O)c(=O)n2c1`: 259 to 261 °C.
Next, `O=C(O)c1ccc(Br)cc1Oc1ccc(F)cc1`: 187 to 189 °C; `COc1cc(C)c(CSCC(=O)O)cc1OC`: 63 to 65 °C.
Next, `Cc1ccc(N2C(=O)NC(CCC(=O)O)C2=O)cc1Cl` (stereo not given): 193 to 195 °C; `CCOC(=O)NC(=S)Nc1nccs1`: 169 to 171 °C.
In turn, `Cc1nn(C)c(C)c1O` registered a melting point of 186 to 188 °C.
Consider `CC(O)c1ccc(-n2cccn2)cc1` (stereo not given), for which the melting point was 92 to 94 °C.
Under `CN(CC(=O)Nc1ccccc1Cl)C(=O)CCl` stands 115 to 117 °C; under `N#Cc1ccc(NC(=O)CCCCl)cc1`, 114 to 116 °C.
Compound `COc1ccc(C(=O)O)cc1S(N)(=O)=O` registered a melting point of 283 to 285 °C.
